Laboratory results published in patent US12065442B2, “Tropomyosin receptor kinase (TRK) degradation compounds and methods of use” (Cullgen (Shanghai), Inc., priority 2018, dated 2024).
pIC50: −log10 of the molar value.

System: KM12 cells
Experiment: Cell viability assay (CellTiter-Glo) in KM12 cells
Type: cell-based
Conditions: Homo sapiens, 72 h; Table 2; KM12 cell viability, CellTiter-Glo, 3 days; read-out: IC50

| Structure (SMILES) | pIC50 |
| --- | --- |
| Cc1ncsc1-c1ccc(CNC(=O)[C@@H]2C[C@@H](O)CN2C(=O)[C@@H](NC(=O)CCCCC(=O)N2CCN(c3cccc(-c4cnc5ccc(N6CCC[C@@H]6c6cccc(F)c6)nn45)n3)CC2)C(C)(C)C)cc1 [CPD-001, (2S,4R)-1-((S)-2-(6-(4-(6-(6-((R)-2-(3-Fluorophenyl)pyrrolidin-1-yl)imidazo[1,2-b]pyridazin-3-yl)pyridin-2-yl)piperazin-1-yl)-6-oxohexanamido)-3,3-dimethylbutanoyl)-4-hydroxy-N-(4-(4-methylthiazol-5-yl)benzyl)pyrrolidine-2-carboxamide] | < 6.00 |
| Cc1ncsc1-c1ccc(CNC(=O)[C@@H]2C[C@@H](O)CN2C(=O)[C@@H](NC(=O)COCCOCC(=O)N2CCN(c3cccc(-c4cnc5ccc(N6CCC[C@@H]6c6cccc(F)c6)nn45)n3)CC2)C(C)(C)C)cc1 [CPD-002, (2S,4R)-1-((S)-2-(2-(2-(2-(4-(6-(6-((R)-2-(3-Fluorophenyl)pyrrolidin-1-yl)imidazo[1,2-b]pyridazin-3-yl)pyridin-2-yl)piperazin-1-yl)-2-oxoethoxy)ethoxy)acetamido)-3,3-dimethylbutanoyl)-4-hydroxy-N-(4-(4-methylthiazol-5-yl)benzyl)pyrrolidine-2-carboxamide] | < 6.00 |
| Cc1ncsc1-c1ccc(CNC(=O)[C@@H]2C[C@@H](O)CN2C(=O)[C@@H](NC(=O)COCCOCCOCCOCCOCC(=O)N2CCN(c3cccc(-c4cnc5ccc(N6CCC[C@@H]6c6cccc(F)c6)nn45)n3)CC2)C(C)(C)C)cc1 [CPD-003, (2S,4R)-1-((S)-2-(tert-butyl)-20-(4-(6-(6-((R)-2-(3-Fluorophenyl)pyrrolidin-1-yl)imidazo[1,2-b]pyridazin-3-yl)pyridin-2-yl)piperazin-1-yl)-4,20-dioxo-6,9,12,15,18-pentaoxa-3-azaicosanoyl)-4-hydroxy-N-(4-(4-methylthiazol-5-yl)benzyl)pyrrolidine-2-carboxamide] | < 6.00 |
| Cc1ncsc1-c1ccc(CNC(=O)[C@@H]2C[C@@H](O)CN2C(=O)[C@@H](NC(=O)CCCCCC(=O)N2CCN(c3cccc(-c4cnc5ccc(N6CCC[C@@H]6c6cccc(F)c6)nn45)n3)CC2)C(C)(C)C)cc1 [CPD-004, (2S,4R)-1-((S)-2-(7-(4-(6-(6-((R)-2-(3-Fluorophenyl)pyrrolidin-1-yl)imidazo[1,2-b]pyridazin-3-yl)pyridin-2-yl)piperazin-1-yl)-7-oxoheptanamido)-3,3-dimethylbutanoyl)-4-hydroxy-N-(4-(4-methylthiazol-5-yl)benzyl)pyrrolidine-2-carboxamide] | 6.75 |
| Cc1ncsc1-c1ccc(CNC(=O)[C@@H]2C[C@@H](O)CN2C(=O)[C@@H](NC(=O)CCOCCOCCOCCOCCOCCC(=O)N2CCN(c3cccc(-c4cnc5ccc(N6CCC[C@@H]6c6cccc(F)c6)nn45)n3)CC2)C(C)(C)C)cc1 [CPD-005, (2S,4R)-1-((S)-2-(tert-butyl)-22-(4-(6-(6-((R)-2-(3-Fluorophenyl)pyrrolidin-1-yl)imidazo[1,2-b]pyridazin-3-yl)pyridin-2-yl)piperazin-1-yl)-4,22-dioxo-7,10,13,16,19-pentaoxa-3-azadocosanoyl)-4-hydroxy-N-(4-(4-methylthiazol-5-yl)benzyl)pyrrolidine-2-carboxamide] | < 6.00 |
| Cc1ncsc1-c1ccc(CNC(=O)[C@@H]2C[C@@H](O)CN2C(=O)[C@@H](NC(=O)CCC(=O)N2CCN(c3cccc(-c4cnc5ccc(N6CCC[C@@H]6c6cccc(F)c6)nn45)n3)CC2)C(C)(C)C)cc1 [CPD-006, (2S,4R)-1-((S)-2-(4-(4-(6-(6-((R)-2-(3-Fluorophenyl)pyrrolidin-1-yl)imidazo[1,2-b]pyridazin-3-yl)pyridin-2-yl)piperazin-1-yl)-4-oxobutanamido)-3,3-dimethylbutanoyl)-4-hydroxy-N-(4-(4-methylthiazol-5-yl)benzyl)pyrrolidine-2-carboxamide] | 6.30 |
